Data on 19 compounds can be found in patent US20230382925A1, “MODULATORS OF CYSTIC FIBROSIS TRANSMEMBRANE CONDUCTANCE REGULATOR” (VERTEX PHARMACEUTICALS INCORPORATED, priority 2020, published 2023).

The structures appear in SMILES notation. Read-outs that look alike come from different tables or passages of the source. Some results are limits rather than exact numbers.

For assay [1], the target named is T1, CFTR (Homo sapiens, UniProt P13569). As to the kind of experiment: Membrane Potential Dye, Enteroid Assay A. Format: cell-based. The following applies: for EC50: read-out: Ent. A EC50. As to the method:
Base medium (ADF+++) consisted of Advanced […], 2 mM Glutamax, 10 mM HEPES, 1 μg/mL penicillin/streptomycin.
Intestinal enteroid maintenance medium (IEMMN) consisted of ADF+++, 1× B27 supplement, 1× N2 supplement, 1.25 mM N-acetyl cysteine, 10 mM Nicotinamide, 50 ng/mL hEGF, 10 nM Gastrin, 1 μg/mL hR-spondin-1, 100 ng/mL hNoggin, TGF-b type 1 inhibitor A-83-01, 100 μg/mL Primocin, 10 μM P38 MAPK inhibitor SB202190.
Bath 1 Buffer consisted of 1 mM MgCl2, 160 mM NaCl, 4.5 mM KCl, 10 mM HEPES, 10 mM Glucose, 2 mM CaCl2).
Chloride Free Buffer consisted of 1 mM Magnesium Gluconate, 2 mM Calcium Gluconate, 4.5 mM Potassium Gluconate, 160 mM Sodium Gluconate, 10 mM HEPES, 10 mM Glucose.
Bath 1 Dye Solution consisted of Bath 1 Buffer, 0.04% Pluronic F127, 20 μM Methyl Oxonol, 30 μM CaCCinh-A01, 30 μM Chicago Sky Blue.
Chloride Free Dye Solution consisted of Chloride Free Buffer, 0.04% Pluronic F127, 20 μM Methyl Oxonol, 30 μM CaCCinh-A01, 30 μM Chicago Sky Blue.
Chloride Free Dye Stimulation Solution consisted of Chloride Free Dye Solution, 10 μM forskolin, 100 μM IBMX, and 300 nM Compound III.
Human intestinal epithelial enteroid cells were obtained from the Hubrecht Institute for Developmental Biology and Stem Cell Research, Utrecht, The Netherlands and expanded in T-Flasks as previously described (Dekkers J F, Wiegerinck C L, de Jonge H R, Bronsveld I, Janssens H M, de Winter-de Groot K M, Brandsma A M, de Jong N W M, Bijvelds M J C, Scholte B J, Nieuwenhuis E E S, van den Brink S, Clevers H, van der Ent C K, Middendorp S and M Beekman J M. A functional CFTR assay using primary cystic fibrosis intestinal organoids. Nat Med. 2013 July; 19(7):939-45.).
3. Enteroid Cell Harvesting and Seeding
Cells were recovered in cell recovery solution, collected by centrifugation at 650 rpm for 5 min at 4° C., resuspended in TrypLE and incubated for 5 min at 37° C. Cells were then collected by centrifugation at 650 rpm for 5 min at 4° C. and resuspended in IEMM containing 10 μM ROCK inhibitor (RI). The cell suspension was passed through a 40 μm cell strainer and resuspended at 1×10^6 cells/mL in IEMM containing 10 μM RI. Cells were seeded at 5000 cells/well into multi-well plates and incubated for overnight at 37° C., 95% humidity and 5% CO2 prior to assay.
4. Membrane Potential Dye, Enteroid Assay A
Enteroid cells were incubated with test compound in IEMM for 18-24 hours at 37° C., 95% humidity and 5% CO2. […] Briefly, cells were washed 5 times in Bath 1 Buffer. Bath 1 Dye Solution was added, and the cells were incubated for 25 min at room temperature. Following dye incubation, cells were washed 3 times in Chloride Free Dye Solution. Chloride transport was initiated by addition of Chloride Free Dye Stimulation Solution and the fluorescence signal was read for 15 min. […] Chloride transport was then expressed as a percentage of the chloride transport following treatment with 3 μM N-[(6-amino-2-pyridyl)sulfonyl]-6-(3-fluoro-5-isobutoxy-phenyl)-2-[(4S)-2,2,4-trimethylpyrrolidin-1-yl]pyridine-3-carboxamide, 3 μM (R)-1-(2,2-difluorobenzo[d][1,3]dioxol-5-yl)-N-(1-(2,3-dihydroxypropyl)-6-fluoro-2-(1-hydroxy-2-methylpropan-2-yl)-1H-indol-5-yl)cyclopropanecarboxamide and 300 nM acute N-[2,4-bis(1,1-dimethylethyl)-5-hydroxyphenyl]-1,4-dihydro-4-oxoquinoline-3-carboxamide triple combination control (% Activity).

Assay [2] deals with T1, CFTR. As to the kind of experiment: Membrane Potential Dye, Enteroid Assay B. Format: cell-based. A digest of the protocol: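 Activity given as % of a triple-combination reference (1 μM and 3 μM correctors, 300 nM acute potentiator). Enteroids were preincubated 18-24 h with compound; chloride efflux then measured 15 min by methyl oxonol fluorescence after forskolin/IBMX/Compound III stimulation in chloride-free buffer containing CaCCinh-A01 and Chicago Sky Blue.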

T1 sequence (P13569 with tags, fused parts or gaps DEL508-508): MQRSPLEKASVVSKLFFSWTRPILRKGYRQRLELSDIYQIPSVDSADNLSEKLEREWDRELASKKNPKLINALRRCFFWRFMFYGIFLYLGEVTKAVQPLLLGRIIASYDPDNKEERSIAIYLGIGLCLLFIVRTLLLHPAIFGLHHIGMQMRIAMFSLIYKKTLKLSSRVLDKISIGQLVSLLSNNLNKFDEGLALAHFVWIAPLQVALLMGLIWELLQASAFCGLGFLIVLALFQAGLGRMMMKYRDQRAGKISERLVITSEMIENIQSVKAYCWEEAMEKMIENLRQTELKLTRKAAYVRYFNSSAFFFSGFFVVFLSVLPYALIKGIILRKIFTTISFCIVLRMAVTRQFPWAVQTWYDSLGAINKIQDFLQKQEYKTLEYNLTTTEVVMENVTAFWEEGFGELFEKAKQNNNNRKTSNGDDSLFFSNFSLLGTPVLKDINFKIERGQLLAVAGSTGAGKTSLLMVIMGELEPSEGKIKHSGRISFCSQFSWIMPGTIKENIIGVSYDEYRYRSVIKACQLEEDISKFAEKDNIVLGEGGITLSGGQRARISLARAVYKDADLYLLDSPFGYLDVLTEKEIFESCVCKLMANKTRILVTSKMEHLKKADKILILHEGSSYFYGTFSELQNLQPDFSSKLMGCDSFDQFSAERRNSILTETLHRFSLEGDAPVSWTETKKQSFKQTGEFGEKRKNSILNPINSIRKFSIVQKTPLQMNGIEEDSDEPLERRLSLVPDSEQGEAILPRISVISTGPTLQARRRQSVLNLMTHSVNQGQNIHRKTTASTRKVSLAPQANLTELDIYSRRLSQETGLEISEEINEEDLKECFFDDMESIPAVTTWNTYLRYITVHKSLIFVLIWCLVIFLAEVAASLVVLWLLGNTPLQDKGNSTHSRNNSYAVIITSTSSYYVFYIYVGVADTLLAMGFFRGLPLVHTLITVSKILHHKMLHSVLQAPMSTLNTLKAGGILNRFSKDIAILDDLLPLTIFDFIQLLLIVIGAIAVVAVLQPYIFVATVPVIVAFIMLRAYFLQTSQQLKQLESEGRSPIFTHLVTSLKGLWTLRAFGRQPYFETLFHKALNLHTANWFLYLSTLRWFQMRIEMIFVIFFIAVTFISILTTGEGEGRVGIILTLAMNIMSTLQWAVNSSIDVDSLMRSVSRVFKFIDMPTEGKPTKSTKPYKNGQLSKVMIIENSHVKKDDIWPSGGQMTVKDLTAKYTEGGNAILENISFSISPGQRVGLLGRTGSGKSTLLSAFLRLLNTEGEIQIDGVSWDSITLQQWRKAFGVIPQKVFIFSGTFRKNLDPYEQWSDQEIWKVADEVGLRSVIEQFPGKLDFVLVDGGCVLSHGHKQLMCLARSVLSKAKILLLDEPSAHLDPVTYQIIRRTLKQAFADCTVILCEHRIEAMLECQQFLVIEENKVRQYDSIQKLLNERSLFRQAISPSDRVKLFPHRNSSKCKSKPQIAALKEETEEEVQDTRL

In the case of `Cc1cccc(C)c1-c1cc2nc(n1)NS(=O)(=O)c1cccc(c1)C(=O)N([C@H]1C[C@]3(CCN(C(C)C)C3)C1)[C@H](CC(C)C)CO2` (single isomer, unassigned) [Compound 33], at CFTR [1], the “Ent. A Max Activity (%)” value is listed as “+++ (+++ is >60%)” and the EC50 was below 1 µM.
In the case of `Cc1cccc(C)c1-c1cc2nc(n1)NS(=O)(=O)c1cccc(c1)C(=O)N([C@H]1C[C@]3(CCN(C(C)C)C3)C1)[C@H](CC(C)C)CO2` (single isomer, unassigned) [Compound 34], on CFTR [1], the “Ent. A Max Activity (%)” value is listed as “+++ (+++ is >60%)” and the EC50 was below 1 µM.
As for `Cc1cccc(C)c1-c1cc2nc(n1)NS(=O)(=O)c1cccc(c1)C(=O)N([C@H]1C[C@@H](CO)C1)[C@H](CC(C)C)CO2` (single isomer, unassigned) [Compound 40], on CFTR [1], the “Ent. A Max Activity (%)” value is recorded as “+++ (+++ is >60%)” and the EC50 fell in the range of 1 to 3 µM.
The corresponding values for `Cc1cccc(C)c1-c1cc2nc(n1)NS(=O)(=O)c1cccc(c1)C(=O)N([C@H]1C[C@@H](OCc3ccccc3)C1)[C@H](CC(C)C)CO2` (single isomer, unassigned) [Compound 42] are “++ (++ is 30-60%)” and below 1 µM.
For `Cc1cccc(C)c1-c1cc2nc(n1)NS(=O)(=O)c1cccc(c1)C(=O)N([C@H]1C[C@@H](O)C1)[C@H](CC(C)C)CO2` (single isomer, unassigned) [Compound 43], in that order: “+++ (+++ is >60%)” and 1 to 3 µM.
Consider `Cc1cccc(C)c1-c1cc2nc(n1)NS(=O)(=O)c1cccc(c1)C(=O)N([C@H]1C[C@@H](O)C1)[C@H](CC(C)C)CO2` (single isomer, unassigned) [Compound 44], for which, on CFTR [1], the “Ent. A Max Activity (%)” value was “+++ (+++ is >60%)” and the EC50 was below 1 µM.
The corresponding values for `Cc1cccc(C)c1-c1cc2nc(n1)NS(=O)(=O)c1cccc(c1)C(=O)N(C1CC3(CC3)C1)C(CC(F)(F)F)CO2` (single isomer, unassigned) [Compound 109, 6-(2,6-Dimethylphenyl)-2,2-dioxo-12-spiro[2.3]hexan-5-yl-11-(2,2,2-trifluoroethyl)-9-oxa-2λ^6-thia-3,5,12,19-tetrazatricyclo[12.3.1.14,8]nonadeca-1(18),4(19),5,7,14,16-hexaen-13-one] are “++ (++ is 30-60%)” and 1 to 3 µM.
For `Cc1cccc(C)c1-c1cc2nc(n1)NS(=O)(=O)c1cccc(c1)C(=O)N(C1CC3(CC3)C1)C(CC(F)(F)F)CO2` (single isomer, unassigned) [Compound 125, 6-(2,6-dimethylphenyl)-12-{spiro[2.3]hexan-5-yl}-11-(2,2,2-trifluoroethyl)-9-oxa-2λ^6-thia-3,5,12,19-tetraazatricyclo[12.3.1.14,8]nonadeca-1(17),4(19),5,7,14(18),15-hexaene-2,2,13-trione], in that order: “++ (++ is 30-60%)” and below 1 µM.
Take `Cc1cccc(C)c1-c1cc2nc(n1)NS(=O)(=O)c1cccc(c1)C(=O)N(C1CC3(CCN(C)CC3)C1)C(CC1(C(F)(F)F)CC1)CO2` (single isomer, unassigned) [Compound 136, 6-(2,6-Dimethylphenyl)-12-(7-methyl-7-azaspiro[3.5]nonan-2-yl)-2,2-dioxo-11-[[1-(trifluoromethyl)cyclopropyl]methyl]-9-oxa-2λ^6-thia-3,5,12,19-tetrazatricyclo[12.3.1.14,8]nonadeca-1(18),4(19),5,7,14,16-hexaen-13-one]: on CFTR [1], the “Ent. A Max Activity (%)” value is “+++ (+++ is >60%)” and the EC50 was below 1 µM.
The corresponding values for `Cc1cccc(C)c1-c1cc2nc(n1)NS(=O)(=O)c1cccc(c1)C(=O)N(C1CC3(CCN(C)CC3)C1)C(CC1(C(F)(F)F)CC1)CO2` (single isomer, unassigned) [Compound 137, 6-(2,6-dimethylphenyl)-12-(7-methyl-7-azaspiro[3.5]nonan-2-yl)-2,2-dioxo-11-[[1-(trifluoromethyl)cyclopropyl]methyl]-9-oxa-2λ^6-thia-3,5,12,19-tetrazatricyclo[12.3.1.14,8]nonadeca-1(18),4(19),5,7,14,16-hexaen-13-one] are “+++ (+++ is >60%)” and 1 to 3 µM.
The corresponding values for `Cc1cccc(C)c1-c1cc2nc(n1)NS(=O)(=O)c1cccc(c1)C(=O)N([C@H]1C[C@]3(CCN(C)C3)C1)[C@H](CC(C)C)CO2` (stereo in doubt) [Compound 333] are “+++ (+++ is >60%)” and below 1 µM.
The corresponding values for `CNC(=O)[C@H]1CC2(C1)C[C@H](N1C(=O)c3cccc(c3)S(=O)(=O)Nc3nc(cc(-c4c(C)cccc4C)n3)OC[C@H]1CC(C)C)C2` (stereo in doubt) [Compound 347] are “+++ (+++ is >60%)” and below 1 µM.
In the case of `CC(C)C[C@@H]1COc2cc(-c3ccccc3C(C)C)nc(n2)NS(=O)(=O)c2cccc(c2)C(=O)N1C1CC2(CCN(C)CC2)C1` [Compound 11, (11R)-11-Isobutyl-6-(2-isopropylphenyl)-12-(7-methyl-7-azaspiro[3.5]nonan-2-yl)-2,2-dioxo-9-oxa-2 λ6-thia-3,5,12,19-tetrazatricyclo[12.3.1.14,8]nonadeca-1(18),4,6,8(19),14,16-hexaen-13-one], at CFTR [1], the “Ent. A Max Activity (%)” value is listed as “+++ (+++ is >60%)” and the 50% effective concentration (EC50) was below 1 µM.
Take `CC(C)C[C@@H]1COc2cc(-c3ccccc3C(C)C)nc(n2)NS(=O)(=O)c2cccc(c2)C(=O)N1C1CC2(CCN(C(=O)OC(C)(C)C)CC2)C1` [Compound 12, tert-Butyl 2-[(11R)-11-isobutyl-6-(2-isopropylphenyl)-2,2,13-trioxo-9-oxa-2λ^6-thia-3,5,12,19-tetrazatricyclo[12.3.1.14,8]nonadeca-1(18),4,6,8(19),14,16-hexaen-12-yl]-7-azaspiro[3.5]nonane-7-carboxylate]: on CFTR [1], the “Ent. A Max Activity (%)” value is “++ (++ is 30-60%)” and the EC50 is below 1 µM.
For `Cc1cccc(C)c1-c1cc2nc(n1)NS(=O)(=O)c1cccc(c1)C(=O)N(C1CC3(CC(N)C3)C1)[C@H](CC(C)(C)C)CO2` (some centres unmarked) [Compound 463], at CFTR [2] (Table 9), the “Ent. B Max Activity (%)” value is reported as “+++ (+++ is >60%)”. Further, the EC50 at CFTR [2] (Table 9, read-out: Ent. B EC50) is below 1 µM.
Turning to `Cc1cccc(C)c1-c1cc2nc(n1)NS(=O)(=O)c1cccc(c1)C(=O)N(C1CC3(CCN(C(=O)OC(C)C)CC3)C1)[C@H](CC1(C(F)(F)F)CC1)CO2` [Compound 464], the “Ent. B Max Activity (%)” value on CFTR [2] was “+++ (+++ is >60%)”. Also, the EC50 on CFTR [2] (read-out: Ent. B EC50) was below 1 µM.
The corresponding values for `COC1CC(N2C(=O)c3cccc(c3)S(=O)(=O)Nc3nc(cc(-c4c(C)cccc4C)n3)OC[C@H]2CC(C)C)C1` (some centres unmarked) [Compound 467] are “+++ (+++ is >60%)” and below 1 µM.
For `Cc1cccc(C)c1-c1cc2nc(n1)NS(=O)(=O)c1cccc(c1)C(=O)N(C1CC3(CC3)C1)CC(C(C)C)O2` (centres unmarked) [Compound 468], in that order: “++ (++ is 30-60%)” and below 1 µM.
Consider `COC(=O)N[C@H]1C[C@@H](N2C(=O)c3cccc(c3)S(=O)(=O)Nc3nc(cc(-c4c(C)cccc4C)n3)OC[C@H]2CC(C)(C)C)C1` [Compound 472], for which the “Ent. B Max Activity (%)” value on CFTR [2] (Table 9) is reported as “+++ (+++ is >60%)”. The EC50 at CFTR [2] (Table 9, read-out: Ent. B EC50) was below 1 µM.

One may read the EC50 as the midpoint of the concentration-response curve.
